The values below come from patent US20090105327A1, “Dibenzocycloheptane compounds and pharmaceuticals containing these compounds” (Merckle GMBH, priority 2005, published 2009).

The target in data set [1] is activated p38α (Homo sapiens, UniProt Q16539). The data set can be described thus: Kinase assay (p38 MAP kinase assay), ATF2 phosphorylation ELISA. The format is biochemical. Conditions: 100 μM ATP, 10 ng activated p38α, ATF2 substrate; read-out: Inhibition of p 38 MAP kinase assay IC50. The procedure:
Kinase Assay (p38 MAP Kinase Assay)
Microtiter plates were coated with 50 μl of ATF2 solution (20 μg/ml) at 37° C. for one hour. After washing with water three times, 50 μl of kinase mixture (50 mM tris-HCl 10 mM MgCl2, 10 mM β-glycerol phosphate, 10 μg/ml BSA, 1 mM DTT, 100 μM ATP, 100 μM Na3VO4, 10 ng of activated p38α) with or without inhibitor were put into the wells and incubated at 37° C. for 1 hour. After washing three times, the plates were incubated with […] at 37° C. for one hour. After washing again three times, a goat anti-rabbit IgG labeled with alkaline phosphatase was added at 37° C. for one hour (in order to retain the antibody phosphorylated protein-substrate complex). After washing three times, the alkaline phosphatase substrate solution (3 mM 4-NPP, 50 mM NaHCO3, 50 mM MgCl2, 100 μl/well) was added at 37° C. for 1.5 hours. […] The IC50 values are calculated.

Data set [2] has as its system TNF-α. The data set can be described thus: tissue or blood. Particulars: Homo sapiens, 4 h, read-out: Inhibition of TNF-α (whole blood) IC50. The procedure:
(§1) The compounds or compositions of the invention can be administered to a mammal (human or animal) in a dose of about 0.5 mg to 100 mg per kg of body weight per day. They can be given in a single dose or in a plurality of doses. […] Pharm. Pharm. Med. Chem. 333, Suppl. 1, 1-40, 2000.
(§2) In Vitro Test Method with Human Whole Blood
(§3) Samples of human potassium EDTA whole blood (400 μl each) are mixed with the test substance and preincubated at 37° C. in a CO2 incubator (5% CO2; 95% moisture-saturated air) for 15 min. The samples are then stimulated with 1 μg/ml LPS (E. coli 026:B6) in a CO2 incubator (5% CO2; 95% moisture-saturated air) at 37° C. for 4 hours. The reaction is stopped by placing the samples on ice, adding DPBS buffer and subsequently centrifuging at 1000.g for 15 min. The amount of IL-1β and TNFα in the plasma supernatant is then measured by means of an ELISA.

The test system of data set [3] is IL-1β. The data set can be described thus: tissue or blood. Particulars: Homo sapiens, 4 h, read-out: Inhibition of IL-1β (whole blood) IC50. The method, then: as §1, §2, §3

pIC50: −log10 of the molar value.

Chain of activated p38α (Q16539 whole entry): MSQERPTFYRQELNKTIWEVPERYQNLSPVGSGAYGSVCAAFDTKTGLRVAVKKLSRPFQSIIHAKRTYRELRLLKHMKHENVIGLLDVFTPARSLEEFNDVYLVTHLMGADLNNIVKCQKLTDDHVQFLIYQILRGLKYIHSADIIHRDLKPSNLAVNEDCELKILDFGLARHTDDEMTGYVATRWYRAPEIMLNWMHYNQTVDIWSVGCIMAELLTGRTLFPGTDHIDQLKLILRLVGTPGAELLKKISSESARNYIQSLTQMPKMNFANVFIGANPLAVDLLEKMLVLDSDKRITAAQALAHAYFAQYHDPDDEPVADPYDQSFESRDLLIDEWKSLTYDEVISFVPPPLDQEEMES

With `Nc1ccccc1Nc1ccc2c(c1)SCc1ccccc1C2=O` [Example 4, 3-(2-Aminoanilino)-6,11-dihydrodibenzo[b,e]thiepin-11-one], the pIC50 in data set [1] was 5.96. For the molecule `Nc1ccccc1Nc1ccc2c(c1)CCc1ccccc1C2=O` [Example 25, 2-(2-Aminophenylamino)-10,11-dihydrodibenzo[a,d]cycloheptan-5-one], the pIC50 was 5.64 in data set [2] and 5.74 in data set [3].

In the case of “3-(2-Amino-4-fluorophenylamino)-6,11-dihydrodibenzo[b,e]oxepin-11-one [Example 24]”, the pIC50 in data set [1] is 7.42. Regarding `Nc1ccccc1Nc1ccc2c(c1)OCc1ccccc1C2=O` [Example 5, 3-(2-Aminoanilino)-6,11-dihydrodibenzo[b,e]oxepin-11-one], the pIC50 in data set [1] was 6.52. `COc1ccccc1Nc1ccc2c(c1)CCc1ccccc1C2=O` [Example 28, 2-(2-Methoxyphenylamino)-10,11-dihydrodibenzo[a,d]cyclohepten-5-one] came in with a melting point of 52.5 °C. Also, in data set [1], the pIC50 was 6.80.

The term pIC50 denotes the negative decadic logarithm of the IC50, by convention in mol/L. Usually melting point stands for the temperature, or range, at which the solid turns liquid.
